Experimental data taken from patent publication US6025356A, “Disubstituted trans-3,4,4a,5,6,10b-hexahydro-2H-naphth[1,2-b]-1,4-oxazines” (Adir et Compagnie, priority 1997, dated 2000).
pKd, pKi: −log10 of the molar value.

Tests used:
[1] = test system: dopaminergic cells in the ventral tegmentum area of the rat; assay: Test recording the unitary extracellular electrical activity in the ventral tegmentum area of the rat; format: in vivo; conditions: n = 4
Protocol: 1. Test recording the unitary extracellular electrical activity in the ventral tegmentum area of the rat
The administration of a dopaminergic agonist decreases the discharge frequency of neurons in a dose-dependent manner. That effect is reversed by haloperidol, a dopaminergic antagonist.
The rats are anaesthetised with chloral hydrate (400 mg/kg, i.p.) and placed in a stereotactic apparatus (Unimecanique, France) after catheterisation of the femoral vein. The level of anaesthesia is maintained by i.p. administration of chloral hydrate every hour; the rectal temperature is maintained at 37±1° C. by means of a thermostatically controlled heated cover. A tungsten microelectrode (10 M.OMEGA., 1 μm) is inserted using an electronic microinsertion device (Unimecanique, France) into the ventral tegmentum area (AP: -5.5/bregma; L: 0.7; H: 7.0-8.5/dura; Paxinos and Watson atlas, 1986). The potentials of the dopaminergic cells are recognised by their morphology (triphasic potentials+/-/+, of a duration greater than 3 msec), their discharge rhythm, whether regular or in bursts of decreasing amplitude, and their discharge frequency, which is from 2 to 8 Hz. A single cell per animal is used for the recording.
After a period≥5 min. (basal activity) and a first injection of carrier (distilled water to which a few drops of dilute lactic acid have been added; pH adjusted to 5 with 1N NaOH), the products of the invention are administered intravenously in cumulatively increasing doses at intervals of 2-3 min..
Acquisition of the data is effected by the software Spike2 (Cambridge Electronic Design, England). The discharge frequency is measured over one minute at the maximum variation between each injection and is expressed as a percentage variation in relation to the basal activity (average of the 5 minutes preceding the first treatment) defined as 100%. The effect of the products is evaluated statistically by a variance analysis over repeated measurements, followed by a Newman-Keuls test for comparing the effects of different doses with the effect of the carrier.

[2] = target: T1, human dopamine D3 receptor (Homo sapiens, UniProt P35462); assay: human D2 and D3 receptor binding study (D3)
T1 construct: expressed in transfected cells
T1 sequence (P35462 whole entry): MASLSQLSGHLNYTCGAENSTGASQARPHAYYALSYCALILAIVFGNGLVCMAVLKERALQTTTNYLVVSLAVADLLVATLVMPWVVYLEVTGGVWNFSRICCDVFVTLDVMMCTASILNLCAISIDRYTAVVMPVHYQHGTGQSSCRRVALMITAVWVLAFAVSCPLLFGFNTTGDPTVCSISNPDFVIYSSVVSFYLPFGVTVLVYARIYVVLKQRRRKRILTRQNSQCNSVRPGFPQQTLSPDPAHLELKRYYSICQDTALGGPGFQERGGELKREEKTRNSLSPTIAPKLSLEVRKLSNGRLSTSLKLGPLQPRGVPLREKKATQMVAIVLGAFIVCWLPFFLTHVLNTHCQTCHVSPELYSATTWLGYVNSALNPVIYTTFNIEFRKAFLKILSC
Protocol: (§1) A. In vitro: human D2 and D3 receptor binding study
(§2) CHO (Chinese Hamster Ovary) cells are transfected in a stable manner with the gene encoding the human dopamine D2 or D3 receptor in accordance with methods known from the literature. The native cells are deficient in the enzyme DHFR (DiHydroFolate Reductase). […] The transfections are carried out using Lipofectin (Gibco). The CHO cells co-transfected with the human D2 receptor and the phleomycin resistance gene are selected for their resistance to the presence of that antibiotic in the culture medium. The cells transfected with the human D3 receptor are selected in the presence of methotrexate in a medium containing no hypoxanthine/thymidine. The compositions of the culture media used are: for CHO-D2 : DMEM (Dulbecco's Modified Eagle Medium) supplemented with 10% foetal calf serum and hypoxanthine/thymidine; and for CHO-D3 : DMEM supplemented with 10% dialysed foetal calf serum. The cells are harvested at confluence and the membranes are then prepared.
(§3) After a few minutes in the presence of 0.2% trypsin, the cells are recovered and centrifuged at 2,000 g for 5 minutes. […]
(§4) The ranges of concentration of each compound include at least seven points determined in triplicate, each experiment being repeated at least twice.
(§5) The recovered filters are then counted using a gamma counter. […]

[3] = target: T2, human dopamine D2 receptor (Homo sapiens, UniProt P14416); assay: human D2 and D3 receptor binding study (D2)
T2 construct: expressed in transfected cells
T2 sequence (P14416 whole entry): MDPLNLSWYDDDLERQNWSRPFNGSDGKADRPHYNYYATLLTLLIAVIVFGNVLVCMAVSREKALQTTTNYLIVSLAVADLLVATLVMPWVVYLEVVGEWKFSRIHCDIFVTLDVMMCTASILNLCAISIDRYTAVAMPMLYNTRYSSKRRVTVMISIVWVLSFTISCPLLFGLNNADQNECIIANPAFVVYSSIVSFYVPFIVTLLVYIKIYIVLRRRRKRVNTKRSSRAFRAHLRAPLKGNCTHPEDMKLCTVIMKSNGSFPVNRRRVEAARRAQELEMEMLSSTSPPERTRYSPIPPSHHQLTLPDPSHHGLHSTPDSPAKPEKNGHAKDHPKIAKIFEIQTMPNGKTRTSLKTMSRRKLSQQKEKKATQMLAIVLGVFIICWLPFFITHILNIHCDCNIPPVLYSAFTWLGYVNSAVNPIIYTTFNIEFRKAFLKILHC
Protocol: as §1, §2, §3, §4, §5

[4] = Forced swimming test; format: in vivo, rat
Description: The forced swimming test (Porsolt R. et al, Eur. J. Pharmacol., 1978, 47, 379-91) is a behavioural test which comprises inducing a state of despair in the rat by placing the naive animal in an enclosure full of water, from which it cannot escape, for a period of fifteen minutes. For the first five to ten minutes the rat struggles vigorously, but finally adopts an immobile posture during the last part of the test. Placed in the same enclosure the next day, the animal remains immobile for the majority of the test (5 minutes' duration). The anti-depressants reduce the duration of immobility of the rat during the test.
The experiment is carried out over two days, with a 24-hour interval, on rats of an average weight of 170 g, housed the day before in individual cages, with free access to food and drink.
On the first day, each rat is placed for fifteen minutes in a glass cylinder (20 cm diameter ×40 cm high) filled to a height of 15 cm with water maintained at 25° C. On the second day, the animal is placed in a cylinder again for a period of five minutes; the total period of immobility (in seconds) of the rat is measured. The product or solvent is administered to the animal thirty minutes before the beginning of the test.

[5] = "Rotations" induced by dopaminergic agonists in rats having a unilateral lesion of the Substantia nigra; format: in vivo, male Wistar rats; conditions: Rattus norvegicus, sc; read-out: dose from which active in the rotation test
[6] = [125I]-iodosulpride, CHO membranes, 30 min at 30° C., pKi = -log Ki

For `O=C(CCCN1CCC(O)(c2ccc(Cl)cc2)CC1)c1ccc(F)cc1` [haloperidol, reference compound], the “discharge frequency, percentage in relation to basal activity (100%)” value (“discharge frequency, percentage … (100%)” for short) ([1]; haloperidol 16 μg/kg i.v., reversal after cumulative doses of Example 3, mean ± standard error of the mean) was 110.5 ± 14.9%.
With “[^125 I]-iodosulpride [[125I]-iodosulpride, reference compound]” the pKd ([2]; radioligand, read-out: Kd (dissociation constant) for the human D3 receptor) was 8.88 and the pKd ([3]; radioligand, read-out: Kd (dissociation constant) for the human D2 receptor) was 9.30.
For `CCCN1CCO[C@@H]2c3cc(C(N)=O)ccc3CC[C@H]21` (single isomer, unassigned) [Example 3, (+)-Trans-3,4,4a,5,6,10b-hexahydro-9-carbamoyl-4-propyl-2H-naphtho[1,2-b]-1,4-oxazine], the ED50 ([4]; Rattus norvegicus, sc, read-out: ID50 (period of immobility)) was 0.41 mg/kg, the “period of immobility (result in words)” value ([4]; s.c.) was “reduces the period of immobility of the animal in a dose-dependent manner” and the pKi [2, 6] was 8.00. For the same molecule, the pKi [3, 6] was 6.50, the minimal effective dose [5] was 0.04 mg/kg and the “discharge frequency, percentage … (100%)” value ([1]; 0.5 μg/kg i.v., cumulative doses, mean ± standard error of the mean) was 80.4 ± 5.54%. For the same molecule, the “discharge frequency, percentage … (100%)” value ([1]; 1 μg/kg i.v., cumulative doses, mean ± standard error of the mean, p ≤ 0.05) was 56.6 ± 11.4%, the “discharge frequency, percentage … (100%)” value ([1]; 2 μg/kg i.v., cumulative doses, mean ± standard error of the mean, p ≤ 0.05) was 25.0 ± 8.68% and the “discharge frequency, percentage … (100%)” value ([1]; 4 μg/kg i.v., cumulative doses, mean ± standard error of the mean, p ≤ 0.05) was 1.56 ± 1.12%. The “discharge frequency, percentage … (100%)” value ([1]; 8 μg/kg i.v., cumulative doses, p ≤ 0.05) was 0.00%.
